# Patent US20230381142A1, “ANTILEISHMANIAL COMPOUNDS, COMPOSITIONS AND USE THEREOF” (TRUSTEES OF BOSTON UNIVERSITY, priority 2022, published 2023)
# Columns and labels:
# [1] = test system: L. donovani intracellular amastigotes in B10R cells; assay: UCSD L. donovani infection assay (Assay Conditions D); format: cell-based; details: for IC50: Leishmania donovani
# Outline: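 Compounds, either single-point at 10 μM or 10-point 2-fold series (3 technical, 2 biological replicates), were incubated 72 h at 37° C. with B10R host cells co-seeded with day-7 stationary L. donovani promastigotes (20:1). DAPI-stained nuclei imaging yielded intracellular parasite EC50 and host-cell CC50.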
# [2] = UCSD infection assay, host cell cytotoxicity (CC50); format: cell-based; details: mouse, B10R host cells infected with L. donovani; host B10R cells
# Experimental: (§1) Assay Conditions D: B10R cells (CVCL_0155) were seeded at 300 cells/well, and L. donovani WT promastigotes in stationary phase (7th day after passage) were added at 6,000 parasites/well (ratio of 20 parasites/cell). Both cells and parasites were seeded in DMEM High-Glucose medium (Gibco, cat. no. 11995065) containing 5% Fetal Bovine Serum (Sigma-Aldrich, cat. no. F2442) and 1% Penicillin-Streptomycin (Gibco, cat. no. 15140122). Cells and parasites were incubated in the presence of the compounds for 72 h at 37° C. and 5% C02. Plates were then fixed with 4% formaldehyde solution for at least 1 h, then washed with 1×PBS and stained with 5 μg/mL DAPI. Plates were read using an ImageXpress microscope (Molecular Devices) and analyzed by MetaXpress software (Molecular Devices) using a custom module optimized for this assay. […] Compounds were tested in a 10-point 2-fold serial dilution in 3 technical replicates, and 2 biological replicates. After 72 h, plates were fixed and stained with DAPI as described above. Images were acquired on an ImageXpress microscope, and analyzed using the MetaXpress custom module.
# as §1, with “Compounds were obtained as 0.2 μmoles of dried film for primary single point screening. Each compound was diluted in DMSO to 10 μM final testing concentration. These compounds were tested in 2 biological replicates. The compounds were pre-spotted onto 384-well assay plates in single concentration.” for “Assay Conditions D:”, “CO2.” for “C02.”, “module. The DRCs were plotted, half-effective concentration (EC50) and half-cytotoxic concentration (CC50) were calculated using GraphPad Prism Software, version 6.05 (GraphPad Software, San Diego, CA).” for “module.”
# [3] = test system: L. donovani intracellular amastigotes infecting THP-1 macrophages; assay: GSK intramacrophage L. donovani assay (LD AMMAC, inMac; Assay Conditions C); format: cell-based; details: Leishmania donovani; for IC50: THP-1; for EC50: growth inhibition of L. donovani intracellular amastigotes infecting THP-1 macrophages, read-out: LD AMMAC EC50
# Outline: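 EC50 values come from counting amastigotes per infected THP-1 macrophage (AMMAC). Parallel read-outs give percentage of infected cells per well (INFCELL) and a macrophage-number toxicity EC50 (MAC).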
# [4] = test system: host THP-1 macrophages; assay: GSK inMac assay, host cell toxicity readout (LD MAC); format: cell-based, human; details: Homo sapiens, THP-1, cytotoxicity against host THP-1 macrophages
# Outline: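 MAC EC50 reflects THP-1 host cell counts, measured within GSK's inMac L. donovani infection assay that also scores intracellular amastigotes and infected-cell percentage.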
# [5] = test system: HepG2 cells; assay: HepG2 cytotoxicity; format: cell-based; details: Homo sapiens; toxicity against HepG2 cells
# [6] = Kinetic aqueous solubility by CLND; format: physicochemical; details: kinetic from dmso stock, high-throughput CLND
# Experimental: Solubility of compounds using ChemiLuminescent Nitrogen Detection (CLND) was measured as described. Solubility of compounds using Charged Aerosol Detection (CAD) was measured as described. Solubility of solid compounds in Fasted Simulated Intestinal Fluid (FaSSIF) was measured as described.
# [7] = Artificial membrane permeability (AMP); format: in vitro ADME; details: PAMPA, pH 7.4
# Outline: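 Passive permeation through 1.8% phosphatidylcholine in 1% decane membrane, 50 mM phosphate buffer pH 7.4 on donor and receiver sides. After 45 min pre-shaking, compounds incubated 3 h at room temperature with shaking, in duplicate; donor and receiver solutions quantified by LC/MS.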
# [8] = target: human serum albumin (Homo sapiens, UniProt P02768); assay: Human serum albumin (HSA) binding, chromatographic; format: in vitro ADME
# Experimental: The percentage of compound bound to human serum albumin was measured using a chromatographic method as described. Briefly, each compound was assayed on an immobilized HSA column and gradient retention times measured, with chromatographic peak detection by UV. Each retention time was then converted to a % HSA bound value using a calibration set of compounds with a known % HSA binding.
# [9] = Property forecast index (PFI = ChromLogD7.4 + aromatic rings); format: physicochemical
# [10] = aqueous medium (not further specified)
# Sequence of human serum albumin (P02768 25-609): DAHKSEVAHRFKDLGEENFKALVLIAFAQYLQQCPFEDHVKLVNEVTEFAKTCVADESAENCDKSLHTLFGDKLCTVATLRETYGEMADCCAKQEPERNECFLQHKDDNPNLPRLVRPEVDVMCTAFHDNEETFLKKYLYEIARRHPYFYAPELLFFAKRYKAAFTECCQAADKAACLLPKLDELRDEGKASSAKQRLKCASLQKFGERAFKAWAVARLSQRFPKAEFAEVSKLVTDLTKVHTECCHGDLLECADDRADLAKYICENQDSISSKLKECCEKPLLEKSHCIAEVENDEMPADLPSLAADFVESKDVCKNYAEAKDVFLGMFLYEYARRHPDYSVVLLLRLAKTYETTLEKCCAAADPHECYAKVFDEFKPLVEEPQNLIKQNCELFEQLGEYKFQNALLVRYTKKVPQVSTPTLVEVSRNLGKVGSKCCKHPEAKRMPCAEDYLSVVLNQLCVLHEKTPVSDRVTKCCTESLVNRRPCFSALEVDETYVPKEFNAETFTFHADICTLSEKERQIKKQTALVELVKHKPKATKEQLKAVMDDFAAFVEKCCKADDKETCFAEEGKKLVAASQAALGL
compound,measurement,setting,value
Cc1ccc(N2C(=O)c3[nH]nc(CC(C)C)c3C2c2ccc(Cl)cc2F)cn1 (centres unmarked) [BUCMD00627],"L. donovani amastigotes EC75 (μM, B10R cells)",[1],>10 µM
same,CC50 at 72 h,[2],10 µM
Cc1ccc(N2C(=O)c3[nH]nc(CC(C)C)c3C2c2ccccc2C)cn1 (centres unmarked) [BUCMD00628],"L. donovani amastigotes EC75 (μM, B10R cells)",[1],3.2 µM
same,CC50 at 72 h,[2],15.8 µM
Cc1ccc(N2C(=O)c3[nH]nc(CC(C)C)c3C2c2ccccc2Cl)cn1 (centres unmarked) [BUCMD00640],"L. donovani amastigotes EC75 (μM, B10R cells)",[1],3.4 µM
same,CC50 at 72 h,[2],12.6 µM
Cc1ccc(N2C(=O)c3[nH]nc(CC(C)C)c3C2c2ccc(Br)cc2F)cn1 (centres unmarked) [BUCMD00641],"L. donovani amastigotes EC75 (μM, B10R cells)",[1],>10 µM
same,CC50 at 72 h,[2],12.6 µM
Cc1ccc(N2C(=O)c3[nH]nc(CC(C)C)c3C2c2ccc(F)cc2Cl)cn1 (centres unmarked) [BUCMD00642],"L. donovani amastigotes EC75 (μM, B10R cells)",[1],1.3 µM
same,CC50 at 72 h,[2],10 µM
COc1ccc(N2C(=O)c3[nH]nc(CC(C)C)c3C2c2ccccc2C)nc1 (centres unmarked) [BUCMD00645],"L. donovani amastigotes EC75 (μM, B10R cells)",[1],>10 µM
same,CC50 at 72 h,[2],20 µM
COc1ccc(N2C(=O)c3[nH]nc(CC(C)C)c3C2c2ccc(F)cc2C)nc1 (centres unmarked) [BUCMD00646],"L. donovani amastigotes EC75 (μM, B10R cells)",[1],>10 µM
same,CC50 at 72 h,[2],12.6 µM
COc1ccc(N2C(=O)c3[nH]nc(CC(C)C)c3C2c2ccccc2Cl)nc1 (centres unmarked) [BUCMD00647],"L. donovani amastigotes EC75 (μM, B10R cells)",[1],>10 µM
same,CC50 at 72 h,[2],10 µM
COc1ccc(N2C(=O)c3[nH]nc(CC(C)C)c3C2c2ccc(Br)cc2F)nc1 (centres unmarked) [BUCMD00648],"L. donovani amastigotes EC75 (μM, B10R cells)",[1],>10 µM
same,CC50 at 72 h,[2],3.98 µM
CC(C)Cc1n[nH]c2c1C(c1ccccc1C(F)(F)F)N(c1cncc(F)c1)C2=O (centres unmarked) [BUCMD00699],"L. donovani amastigotes EC75 (μM, B10R cells)",[1],1.4 µM
same,CC50 at 72 h,[2],5.01 µM
CC(C)Cc1n[nH]c2c1C(c1ccccc1F)N(c1cncc(F)c1)C2=O (centres unmarked) [BUCMD00700],"L. donovani amastigotes EC75 (μM, B10R cells)",[1],1.3 µM
same,CC50 at 72 h,[2],10 µM
CC(C)Cc1n[nH]c2c1C(c1ccc(F)cc1Cl)N(c1ccc(C(=O)N3CCCC3)cc1)C2=O (centres unmarked) [BUCMD00711],"L. donovani amastigotes EC75 (μM, B10R cells)",[1],>10 µM
same,CC50 at 72 h,[2],5.01 µM
CC(C)Cc1n[nH]c2c1C(c1ccc(Cl)cc1Cl)N(c1ccc(C(=O)N3CCCC3)cc1)C2=O (centres unmarked) [BUCMD00712],"L. donovani amastigotes EC75 (μM, B10R cells)",[1],>10 µM
same,CC50 at 72 h,[2],1.58 µM
Cc1ccccc1C1c2c(CC(C)C)n[nH]c2C(=O)N1c1ccc(C(=O)N2CCCC2)cc1 (centres unmarked) [BUCMD00713],"L. donovani amastigotes EC75 (μM, B10R cells)",[1],>10 µM
same,CC50 at 72 h,[2],10 µM
CC(C)Cc1n[nH]c2c1C(c1ccc(F)cc1F)N(c1ccc(C(=O)N3CCCC3)cc1)C2=O (centres unmarked) [BUCMD00714],"L. donovani amastigotes EC75 (μM, B10R cells)",[1],>10 µM
same,CC50 at 72 h,[2],10 µM
Cc1cc(F)ccc1C1c2c(CC(C)C)n[nH]c2C(=O)N1c1ccc(N2CCN(C)CC2)nc1 (centres unmarked) [BUCMD00717],"L. donovani amastigotes EC75 (μM, B10R cells)",[1],1.0 µM
same,CC50 at 72 h,[2],7.94 µM
CC(C)Cc1n[nH]c2c1C(c1ccc(F)cc1Cl)N(c1ccc(N3CCN(C)CC3)nc1)C2=O (centres unmarked) [BUCMD00718],"L. donovani amastigotes EC75 (μM, B10R cells)",[1],1.0 µM
same,CC50 at 72 h,[2],6.31 µM
CC(C)Cc1n[nH]c2c1C(c1ccc(Cl)cc1Cl)N(c1ccc(N3CCN(C)CC3)nc1)C2=O (centres unmarked) [BUCMD00719],"L. donovani amastigotes EC75 (μM, B10R cells)",[1],>10 µM
same,CC50 at 72 h,[2],2 µM
CC(C)Cc1n[nH]c2c1C(c1ccc(F)cc1F)N(c1ccc(N3CCN(C)CC3)nc1)C2=O (centres unmarked) [BUCMD00722],"L. donovani amastigotes EC75 (μM, B10R cells)",[1],>10 µM
same,CC50 at 72 h,[2],7.94 µM
CC(C)Cc1n[nH]c2c1C(c1ccccc1C(F)(F)F)N(c1ccc(N3CCN(C)CC3)nc1)C2=O (centres unmarked) [BUCMD00723],"L. donovani amastigotes EC75 (μM, B10R cells)",[1],10.0 µM
same,CC50 at 72 h,[2],7.94 µM
CC(C)Cc1n[nH]c2c1C(c1ccccc1F)N(c1ccc(N3CCN(C)CC3)nc1)C2=O (centres unmarked) [BUCMD00724],"L. donovani amastigotes EC75 (μM, B10R cells)",[1],>10 µM
same,CC50 at 72 h,[2],6.31 µM
CC(C)Cc1n[nH]c2c1C(c1ccc(F)c(F)c1)N(c1ccc(N3CCN(C)CC3)nc1)C2=O (centres unmarked) [BUCMD00725],"L. donovani amastigotes EC75 (μM, B10R cells)",[1],>10 µM
same,CC50 at 72 h,[2],7.94 µM
"COc1ccc(N2C(=O)c3[nH]nc(CC(C)C)c3C2c2ccc(F)cc2)cc1F (centres unmarked) [Compound 42, 5-(3-fluoro-4-methoxyphenyl)-4-(4-fluorophenyl)-3-isobutyl-4,5-dihydropyrrolo[3,4-c]pyrazol-6(2H)-one]",IC50,[3],1.3 µM
same,EC50,[3],1.3 µM
same,EC50,[4],25.1 µM
same,EC50,[5],50.1 µM
same,IC50,[1],0.6 µM
same,solubility,[6]; aqueous medium,39 µM
same,Papp at 3 h,[7],290 nm/s
same,HSA Binding,[8],96.9%
same,PFI,[9],8.6
"CC(C)Cc1n[nH]c2c1C(c1ccc(F)cc1)N(c1ccc3c(c1)OCO3)C2=O (centres unmarked) [Compound 44, 5-(benzo[d][1,3]dioxol-5-yl)-4-(4-fluorophenyl)-3-isobutyl-4,5-dihydropyrrolo[3,4-c]pyrazol-6(1H)-one]",IC50,[3],0.6 µM
same,EC50,[3],0.6 µM
same,EC50,[4],25.1 µM
same,EC50,[5],63.1 µM
same,IC50,[1],0.3 µM
same,solubility,[6]; aqueous medium,63 µM
same,Papp at 3 h,[7],390 nm/s
same,HSA Binding,[8],96.2%
same,PFI,[9],8.4
CC(C)Cc1n[nH]c2c1C(c1ccc(F)cc1)N(c1ccc3c(c1)OCCO3)C2=O (centres unmarked) [Compound 45],IC50,[3],3.2 µM
same,EC50,[3],3.2 µM
same,EC50,[4],25.1 µM
same,EC50,[5],> 50 µM
same,IC50,[1],0.9 µM
same,solubility,[6]; aqueous medium,50 µM
same,Papp at 3 h,[7],510 nm/s
same,HSA Binding,[8],96.2%
same,PFI,[9],8.4
"COc1ccc(N2C(=O)c3[nH]nc(CC(C)C)c3C2c2ccccc2Cl)cc1 (centres unmarked) [Compound 55, 4-(2-chlorophenyl)-3-isobutyl-5-(4-methoxyphenyl)-4,5-dihydropyrrolo[3,4-c]pyrazol-6(1H)-one]",IC50,[3],1.3 µM
same,EC50,[3],1.3 µM
same,EC50,[4],20 µM
same,EC50,[5],31.6 µM
same,IC50,[1],0.2 µM
same,solubility,[6]; [10],30 µM
same,Papp at 3 h,[7],330 nm/s
same,HSA Binding,[8],97.8%
same,PFI,[9],8.8
COc1ccc(N2C(=O)c3[nH]nc(CC(C)C)c3C2c2ccsc2)cc1 (centres unmarked) [Compound S3],IC50,[3],6.3 µM
same,EC50,[3],6.3 µM
same,EC50,[4],> 50 µM
same,EC50,[5],> 100 µM
same,IC50,[1],4 µM
same,solubility,[6]; [10],149 µM
same,Papp at 3 h,[7],470 nm/s
same,HSA Binding,[8],95.4%
same,PFI,[9],8.3
COc1ccc(N2C(=O)c3[nH]nc(CC(C)C)c3C2c2ccc(F)cn2)cc1 (centres unmarked) [Compound S10],IC50,[3],10 µM
same,EC50,[3],10 µM
same,EC50,[4],> 50 µM
same,EC50,[5],> 100 µM
same,IC50,[1],3.4 µM
same,solubility,[6]; [10],≥ 343 µM
same,Papp at 3 h,[7],490 nm/s
same,HSA Binding,[8],90.2%
same,PFI,[9],7.7
